According to ChEMBL document CHEMBL1148864, “Design of LFA-1 antagonists based on a 2,3-dihydro-1H-pyrrolizin-5(7aH)-one scaffold” (Bioorg Med Chem Lett, 2007):

Tests used:
Homo sapiens [1] = species: Homo sapiens; settings: 10 uM
Homo sapiens [2] = species: Homo sapiens; settings: 1 uM

| SMILES | inhibition (Homo sapiens [1]) [%] | inhibition (Homo sapiens [2]) [%] |
| --- | --- | --- |
| O=C1C(c2cc(Cl)cc(Cl)c2)=C(c2cc[nH]n2)[C@]2(Cc3ccc(Br)cc3)CCCN12 | 30 |  |
| N#Cc1ccc(C[C@@]23CCCN2C(=O)C(c2cc(Cl)cc(Cl)c2)=C3O)cc1 |  | 27 |
